Patent publication US11178873B2, “Cyclic N-carboxamide compounds useful as herbicides” (FMC CORPORATION, priority 2015, dated 2021)

How the values were obtained:
Format in all cases: in vivo
[1] = test system: foxtail, giant (giant foxtail, Setaria faberii); assay: Test A postemergence, foxtail, giant; conditions: 0 to 100 scale, 0 no effect, 100 complete control
From the text: (§1) Seeds of plant species selected from barnyardgrass (Echinochloa crus-galli), crabgrass, large (large crabgrass, Digitaria sanguinalis), kochia (Kochia scoparia), ragweed (common ragweed, Ambrosia elatior), morningglory (Ipomoea spp.), velvetleaf (Abutilon theophrasti), ryegrass, Italian (Italian ryegrass, Lolium multiflorum), foxtail, giant (giant foxtail, Setaria faberii), wheat (Triticum aestivum), corn (Zea mays), and pigweed (Amaranthus retroflexus), were planted into a blend of loam soil and sand and treated preemergence with a directed soil spray using test chemicals formulated in a non-phytotoxic solvent mixture which included a surfactant. At the same time, plants selected from these crop and weed species and also blackgrass (Alopecurus myosuroides), and galium (catchweed bedstraw, Galium aparine), were planted in pots containing the same blend of loam soil and sand and treated with postemergence applications of test chemicals formulated in the same manner. Plants ranged in height from 2 to 10 cm and were in the one- to two-leaf stage for the postemergence treatment. Treated plants and untreated controls were maintained in a greenhouse for approximately 10 d, after which time all treated plants were compared to untreated controls and visually evaluated for injury. Plant response ratings, summarized in Table A, are based on a 0 to 100 scale where 0 is no effect and 100 is complete control. A dash (-) response means no test result.

[2] = test system: sedge, umbrella (small-flower umbrella sedge, Cyperus difformis); assay: Test B flooded paddy test, sedge, umbrella; conditions: Flood, scale 0 to 100 (0 no effect, 100 complete control), 13 to 15 d
Experimental: (§2) Plant species in the flooded paddy test selected from rice (Oryza sativa), sedge, umbrella (small-flower umbrella sedge, Cyperus difformis), ducksalad (Heteranthera limosa), and barnyardgrass (Echinochloa crus-galli) were grown to the 2-leaf stage for testing. At time of treatment, test pots were flooded to 3 cm above the soil surface, treated by application of test compounds directly to the paddy water, and then maintained at that water depth for the duration of the test. Treated plants and controls were maintained in a greenhouse for 13 to 15 d, after which time all species were compared to controls and visually evaluated. Plant response ratings, summarized in Table B, are based on a scale of 0 to 100 where 0 is no effect and 100 is complete control. A dash (-) response means no test result.

[3] = test system: wheat (Triticum aestivum); assay: Test A postemergence, wheat; conditions: 0 to 100 scale, 0 no effect, 100 complete control
From the text: as §1

[4] = test system: ragweed (common ragweed, Ambrosia elatior); assay: Test A preemergence, ragweed; conditions: 0 to 100 scale, 0 no effect, 100 complete control
From the text: as §1

rice (Oryza sativa) = assay: Test B flooded paddy test, rice; conditions: Flood, scale 0 to 100 (0 no effect, 100 complete control), 13 to 15 d
Experimental: as §2

[5] = test system: ryegrass, Italian (Italian ryegrass, Lolium multiflorum); assay: Test A postemergence, ryegrass, Italian; conditions: 0 to 100 scale, 0 no effect, 100 complete control
From the text: as §1

[6] = test system: galium (catchweed bedstraw, Galium aparine); assay: Test A postemergence, galium; conditions: 0 to 100 scale, 0 no effect, 100 complete control
From the text: as §1

[7] = test system: ragweed (common ragweed, Ambrosia elatior); assay: Test A postemergence, ragweed; conditions: 0 to 100 scale, 0 no effect, 100 complete control
From the text: as §1

[8] = test system: pigweed (Amaranthus retroflexus); assay: Test A preemergence, pigweed; conditions: 0 to 100 scale, 0 no effect, 100 complete control
From the text: as §1

[9] = test system: ducksalad (Heteranthera limosa); assay: Test B flooded paddy test, ducksalad; conditions: Flood, scale 0 to 100 (0 no effect, 100 complete control), 13 to 15 d
Experimental: as §2

[10] = test system: blackgrass (Alopecurus myosuroides); assay: Test A postemergence, blackgrass; conditions: 0 to 100 scale, 0 no effect, 100 complete control
From the text: as §1

kochia (Kochia scoparia) [11] = assay: Test A preemergence, kochia; conditions: 0 to 100 scale, 0 no effect, 100 complete control
From the text: as §1

[12] = test system: ryegrass, Italian (Italian ryegrass, Lolium multiflorum); assay: Test A preemergence, ryegrass, Italian; conditions: 0 to 100 scale, 0 no effect, 100 complete control
From the text: as §1

[13] = test system: barnyardgrass (Echinochloa crus-galli); assay: Test A postemergence, barnyardgrass; conditions: 0 to 100 scale, 0 no effect, 100 complete control
From the text: as §1

[14] = test system: barnyardgrass (Echinochloa crus-galli); assay: Test B flooded paddy test, barnyardgrass; conditions: Flood, scale 0 to 100 (0 no effect, 100 complete control), 13 to 15 d
Experimental: as §2

[15] = test system: pigweed (Amaranthus retroflexus); assay: Test A postemergence, pigweed; conditions: 0 to 100 scale, 0 no effect, 100 complete control
From the text: as §1

[16] = test system: barnyardgrass (Echinochloa crus-galli); assay: Test A preemergence, barnyardgrass; conditions: 0 to 100 scale, 0 no effect, 100 complete control
From the text: as §1

kochia (Kochia scoparia) [17] = assay: Test A postemergence, kochia; conditions: 0 to 100 scale, 0 no effect, 100 complete control
From the text: as §1

[18] = test system: foxtail, giant (giant foxtail, Setaria faberii); assay: Test A preemergence, foxtail, giant; conditions: 0 to 100 scale, 0 no effect, 100 complete control
From the text: as §1

corn (Zea mays) = assay: Test A postemergence, corn; conditions: 0 to 100 scale, 0 no effect, 100 complete control
From the text: as §1

O=C1NCC(c2ccc(F)c(F)c2)N1C(=O)Nc1ccccc1F (stereo not drawn) [Compound 8]
0: Plant response rating, Foxtail, Giant ([1]; 125 g ai/ha) | Plant response rating, Foxtail, Giant ([1]; 500 g ai/ha) | Plant response rating, Sedge, Umbrella ([2]; 500 g ai/ha) | Plant response rating, Wheat ([3]; 125 g ai/ha) | Plant response rating, Wheat ([3]; 500 g ai/ha) | Plant response rating, Ragweed ([4]; 125 g ai/ha) | Plant response rating, Ragweed ([4]; 500 g ai/ha) | Plant response rating, Rice (rice (Oryza sativa); 500 g ai/ha) | Plant response rating, Ryegrass, Italian ([5]; 125 g ai/ha) | Plant response rating, Ryegrass, Italian ([5]; 500 g ai/ha) | Plant response rating, Galium ([6]; 125 g ai/ha) | Plant response rating, Galium ([6]; 500 g ai/ha) | Plant response rating, Ragweed ([7]; 125 g ai/ha) | Plant response rating, Ragweed ([7]; 500 g ai/ha) | Plant response rating, Pigweed ([8]; 125 g ai/ha) | Plant response rating, Pigweed ([8]; 500 g ai/ha) | Plant response rating, Blackgrass ([10]; 125 g ai/ha) | Plant response rating, Blackgrass ([10]; 500 g ai/ha) | Plant response rating, Kochia (kochia (Kochia scoparia) [11]; 125 g ai/ha) | Plant response rating, Kochia (kochia (Kochia scoparia) [11]; 500 g ai/ha) | Plant response rating, Ryegrass, Italian ([12]; 125 g ai/ha) | Plant response rating, Ryegrass, Italian ([12]; 500 g ai/ha) | Plant response rating, Barnyardgrass ([13]; 125 g ai/ha) | Plant response rating, Barnyardgrass ([13]; 500 g ai/ha) | Plant response rating, Barnyardgrass ([14]; 500 g ai/ha) | Plant response rating, Pigweed ([15]; 125 g ai/ha) | Plant response rating, Pigweed ([15]; 500 g ai/ha) | Plant response rating, Barnyardgrass ([16]; 125 g ai/ha) | Plant response rating, Barnyardgrass ([16]; 500 g ai/ha) | Plant response rating, Kochia (kochia (Kochia scoparia) [17]; 125 g ai/ha) | Plant response rating, Kochia (kochia (Kochia scoparia) [17]; 500 g ai/ha) | Plant response rating, Foxtail, Giant ([18]; 125 g ai/ha) | Plant response rating, Foxtail, Giant ([18]; 500 g ai/ha) | Plant response rating, Corn (corn (Zea mays); 125 g ai/ha) | Plant response rating, Corn (corn (Zea mays); 500 g ai/ha)
40: Plant response rating, Ducksalad ([9]; 500 g ai/ha)

CN1CC(c2cccc(C(F)(F)F)c2)N(C(=O)Nc2cccc(F)c2F)C1=O (stereo not drawn) [Compound 18]
80: Plant response rating, Foxtail, Giant ([18]; 125 g ai/ha)
70: Plant response rating, Barnyardgrass ([16]; 125 g ai/ha) | Plant response rating, Foxtail, Giant ([18]; 31 g ai/ha)
50: Plant response rating, Foxtail, Giant ([1]; 125 g ai/ha)
65: Plant response rating, Ducksalad ([9]; 250 g ai/ha)
10: Plant response rating, Foxtail, Giant ([1]; 31 g ai/ha) | Plant response rating, Barnyardgrass ([13]; 31 g ai/ha)
30: Plant response rating, Barnyardgrass ([13]; 125 g ai/ha)
20: Plant response rating, Barnyardgrass ([16]; 31 g ai/ha)
0: Plant response rating, Sedge, Umbrella ([2]; 250 g ai/ha) | Plant response rating, Wheat ([3]; 31 g ai/ha) | Plant response rating, Wheat ([3]; 125 g ai/ha) | Plant response rating, Ragweed ([4]; 31 g ai/ha) | Plant response rating, Ragweed ([4]; 125 g ai/ha) | Plant response rating, Rice (rice (Oryza sativa); 250 g ai/ha) | Plant response rating, Ryegrass, Italian ([5]; 31 g ai/ha) | Plant response rating, Ryegrass, Italian ([5]; 125 g ai/ha) | Plant response rating, Galium ([6]; 31 g ai/ha) | Plant response rating, Galium ([6]; 125 g ai/ha) | Plant response rating, Ragweed ([7]; 31 g ai/ha) | Plant response rating, Ragweed ([7]; 125 g ai/ha) | Plant response rating, Pigweed ([8]; 31 g ai/ha) | Plant response rating, Pigweed ([8]; 125 g ai/ha) | Plant response rating, Blackgrass ([10]; 31 g ai/ha) | Plant response rating, Blackgrass ([10]; 125 g ai/ha) | Plant response rating, Kochia (kochia (Kochia scoparia) [11]; 31 g ai/ha) | Plant response rating, Kochia (kochia (Kochia scoparia) [11]; 125 g ai/ha) | Plant response rating, Ryegrass, Italian ([12]; 31 g ai/ha) | Plant response rating, Ryegrass, Italian ([12]; 125 g ai/ha) | Plant response rating, Barnyardgrass ([14]; 250 g ai/ha) | Plant response rating, Pigweed ([15]; 31 g ai/ha) | Plant response rating, Pigweed ([15]; 125 g ai/ha) | Plant response rating, Kochia (kochia (Kochia scoparia) [17]; 31 g ai/ha) | Plant response rating, Kochia (kochia (Kochia scoparia) [17]; 125 g ai/ha) | Plant response rating, Corn (corn (Zea mays); 31 g ai/ha) | Plant response rating, Corn (corn (Zea mays); 125 g ai/ha)

CN1CC(c2cccc(C(F)(F)F)c2)N(C(=O)Nc2ccccc2F)C1=O (stereo not drawn) [Compound 16]
70: Plant response rating, Foxtail, Giant ([18]; 125 g ai/ha)
0: Plant response rating, Foxtail, Giant ([1]; 31 g ai/ha) | Plant response rating, Sedge, Umbrella ([2]; 250 g ai/ha) | Plant response rating, Wheat ([3]; 31 g ai/ha) | Plant response rating, Wheat ([3]; 125 g ai/ha) | Plant response rating, Ragweed ([4]; 31 g ai/ha) | Plant response rating, Ragweed ([4]; 125 g ai/ha) | Plant response rating, Rice (rice (Oryza sativa); 250 g ai/ha) | Plant response rating, Ryegrass, Italian ([5]; 31 g ai/ha) | Plant response rating, Ryegrass, Italian ([5]; 125 g ai/ha) | Plant response rating, Galium ([6]; 31 g ai/ha) | Plant response rating, Galium ([6]; 125 g ai/ha) | Plant response rating, Ragweed ([7]; 31 g ai/ha) | Plant response rating, Ragweed ([7]; 125 g ai/ha) | Plant response rating, Pigweed ([8]; 31 g ai/ha) | Plant response rating, Pigweed ([8]; 125 g ai/ha) | Plant response rating, Ducksalad ([9]; 250 g ai/ha) | Plant response rating, Blackgrass ([10]; 31 g ai/ha) | Plant response rating, Blackgrass ([10]; 125 g ai/ha) | Plant response rating, Kochia (kochia (Kochia scoparia) [11]; 31 g ai/ha) | Plant response rating, Kochia (kochia (Kochia scoparia) [11]; 125 g ai/ha) | Plant response rating, Ryegrass, Italian ([12]; 31 g ai/ha) | Plant response rating, Ryegrass, Italian ([12]; 125 g ai/ha) | Plant response rating, Barnyardgrass ([13]; 31 g ai/ha) | Plant response rating, Barnyardgrass ([14]; 250 g ai/ha) | Plant response rating, Pigweed ([15]; 31 g ai/ha) | Plant response rating, Pigweed ([15]; 125 g ai/ha) | Plant response rating, Barnyardgrass ([16]; 31 g ai/ha) | Plant response rating, Kochia (kochia (Kochia scoparia) [17]; 31 g ai/ha) | Plant response rating, Kochia (kochia (Kochia scoparia) [17]; 125 g ai/ha) | Plant response rating, Corn (corn (Zea mays); 31 g ai/ha) | Plant response rating, Corn (corn (Zea mays); 125 g ai/ha)
10: Plant response rating, Foxtail, Giant ([1]; 125 g ai/ha) | Plant response rating, Barnyardgrass ([13]; 125 g ai/ha)
30: Plant response rating, Barnyardgrass ([16]; 125 g ai/ha) | Plant response rating, Foxtail, Giant ([18]; 31 g ai/ha)
